Laboratory results published in patent US20250154169A1, “COMPOUNDS AND METHODS FOR MODULATING SPLICING” (REMIX THERAPEUTICS INC., priority 2021, published 2025).

Columns and labels:
MYB mRNA = assay: Splicing RT-qPCR assay, MYB canonical (CJ) and alternative (AJ) junction mRNA; type: cell-based, human; settings: Homo sapiens, 24 h, A673 or K562 cells, 24 hours compound treatment, RT-qPCR; for AC50: read-out: MYB AJ (AC50, increase in alternative junction mRNA); for IC50: read-out: MYB CJ (IC50, decrease in canonical junction mRNA)
How it was run: (§1)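 Canonical (CJ) and alternative-exon (AJ) junction mRNAs quantified by one-step RT-qPCR in cell lysates, normalized to housekeeping PPIA for A673 and GAPDH or GUSB for K562. Cells were exposed 24 h at 37 °C to 11-point 3-fold compound series from 10 uM final, with DMSO at or below 0.25%.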

HTT mRNA = assay: Splicing RT-qPCR assay, HTT canonical (CJ) and alternative (AJ) junction mRNA; type: cell-based, human; settings: Homo sapiens, A673 or K562 cells, 24 hours compound treatment; for IC50: 24 h, read-out: HTT CJ (IC50, decrease in canonical junction mRNA); for AC50: read-out: HTT AJ (AC50, increase in alternative junction mRNA)
How it was run: as §1

SMILES	AC50 (MYB mRNA) [nM]	IC50 (MYB mRNA) [nM]	IC50 (HTT mRNA) [nM]	AC50 (HTT mRNA) [nM]
CCN(CC)C1(C)CCN(c2ccc(C(=O)Nc3cc(F)c4nc(C)cn4c3)c3nn(CC)cc23)CC1 [Compound 517, 4-[4-(diethylamino)-4-methylpiperidin-1-yl]-2-ethyl-N-{8-fluoro-2-methylimidazo[1,2-a]pyridin-6-yl}indazole-7-carboxamide trifluoroacetic acid]	100 to 1000	100 to 1000	1000 to 10000	> 10000
Cc1cn2cc(NC(=O)c3ccc(N4CCNCC4)c4cn(C)nc34)ccc2n1 [Compound 518, 2-methyl-N-{2-methylimidazo[1,2-a]pyridin-6-yl}-4-(piperazin-1-yl) indazole-7-carboxamide]	< 100	100 to 1000	1000 to 10000	1000 to 10000
CCN[C@@H]1CCN(c2ccc(C(=O)Nc3cc(F)c4nc(C)cn4c3)c3nn(C)cc23)C1 [Compound 520, 4-[(3R)-3-(ethylamino)pyrrolidin-1-yl]-N-{8-fluoro-2-methylimidazo[1,2-a]pyridin-6-yl}-2-methylindazole-7-carboxamide]	< 100	< 100	1000 to 10000	1000 to 10000
Cc1cn2cc(NC(=O)c3ccc(N4CC[C@@H](NCC5CC5)C4)c4cn(C)nc34)cc(F)c2n1 [Compound 522, 4-[(3R)-3-[(cyclopropylmethyl)amino]pyrrolidin-1-yl]-N-{8-fluoro-2-methylimidazo[1,2-a]pyridin-6-yl}-2-methylindazole-7-carboxamide]	100 to 1000	< 100	1000 to 10000	1000 to 10000
Cc1cn2cc(NC(=O)c3ccc(N4CC[C@@H](NC(C)C)C4)c4cn(C)nc34)cc(F)c2n1 [Compound 524, N-{8-fluoro-2-methylimidazo[1,2-a]pyridin-6-yl}-4-[(3R)-3-(isopropylamino)pyrrolidin-1-yl]-2-methylindazole-7-carboxamide]	< 100	< 100	> 10000	> 10000
CCn1cc2c(N3CCC(C)(NC4CC4)CC3)ccc(C(=O)Nc3cc(F)c4nc(C)cn4c3)c2n1 [Compound 525, 4-[4-(cyclopropylamino)-4-methylpiperidin-1-yl]-2-ethyl-N-{8-fluoro-2-methylimidazo[1,2-a]pyridin-6-yl}indazole-7-carboxamide]	< 100	< 100	100 to 1000	100 to 1000
CCn1cc2c(C3CCNC3)ccc(C(=O)Nc3cc(F)c4nccn4c3)c2n1 (stereo not drawn) [Compound 526, 2-ethyl-N-{8-fluoroimidazo[1,2-a]pyridin-6-yl}-4-(pyrrolidin-3-yl) indazole-7-carboxamide]	1000 to 10000	1000 to 10000	> 10000	> 10000
CCN(c1ccc(C(=O)Nc2cc(F)c3nc(C)cn3c2)c2nn(C)cc12)C1CCNCC1 [Compound 527, 4-[ethyl(piperidin-4-yl)amino]-N-{8-fluoro-2-methylimidazo[1,2-a]pyridin-6-yl}-2-methylindazole-7-carboxamide]	100 to 1000	100 to 1000	> 10000	> 10000
Cc1cn2cc(NC(=O)c3cc(Cl)c(N4CCNCC4)c4cn(C)nc34)cc(F)c2n1 [Compound 528, 5-chloro-N-{8-fluoro-2-methylimidazo[1,2-a]pyridin-6-yl}-2-methyl-4-(piperazin-1-yl) indazole-7-carboxamide]	100 to 1000	100 to 1000	> 10000	> 10000
COc1nc(NC(=O)c2ccc(N3CCNCC3)c3cn(C)nc23)cc2oc(C)nc12 [Compound 529, N-{4-methoxy-2-methyl-[1,3]oxazolo[4,5-c]pyridin-6-yl}-2-methyl-4-(piperazin-1-yl) indazole-7-carboxamide]	< 100	< 100	< 100	100 to 1000
Cc1cn2cc(NC(=O)c3ccc(N4CC[C@@H](NC5COC5)C4)c4cn(C)nc34)cc(F)c2n1 [Compound 531, N-{8-fluoro-2-methylimidazo[1,2-a]pyridin-6-yl}-2-methyl-4-[(3R)-3-(oxetan-3-ylamino)pyrrolidin-1-yl]indazole-7-carboxamide]	1000 to 10000	100 to 1000	1000 to 10000	1000 to 10000
Cc1cn2cc(NC(=O)c3ccc(N4CC[C@@H](NC5CCC5)C4)c4cn(C)nc34)cc(F)c2n1 [Compound 533, (R)-4-(3-(cyclobutylamino)pyrrolidin-1-yl)-N-(8-fluoro-2-methylimidazo[1,2-a]pyridin-6-yl)-2-methyl-2H-indazole-7-carboxamide]	< 100	< 100	1000 to 10000	1000 to 10000
CCn1cc2c(N3CCN[C@@H](C(C)C)C3)ccc(C(=O)Nc3cc(F)c4nc(C)cn4c3)c2n1 [Compound 535, 2-ethyl-N-{8-fluoro-2-methylimidazo[1,2-a]pyridin-6-yl}-4-[(3 S)-3-isopropylpiperazin-1-yl]indazole-7-carboxamide]	100 to 1000	100 to 1000	> 10000	> 10000
CCn1cc2c(N3CCN4CCOC[C@H]4C3)ccc(C(=O)Nc3cc(F)c4nc(C)cn4c3)c2n1 [Compound 537, 4-[(9aR)-hexahydro-1H-pyrazino[2,1-c][1,4]oxazin-8-yl]-2-ethyl-N-{8-fluoro-2-methylimidazo[1,2-a]pyridin-6-yl}indazole-7-carboxamide]	1000 to 10000	1000 to 10000	> 10000	> 10000
CCn1cc2c(N3CCN4CCOC[C@@H]4C3)ccc(C(=O)Nc3cc(F)c4nc(C)cn4c3)c2n1 [Compound 538, 4-[(9aS)-hexahydro-1H-pyrazino[2,1-c][1,4]oxazin-8-yl]-2-ethyl-N-{8-fluoro-2-methylimidazo[1,2-a]pyridin-6-yl} indazole-7-carboxamide]	1000 to 10000	1000 to 10000	1000 to 10000	1000 to 10000
CCn1cc2c(N3CCC(C)(N)C3)ccc(C(=O)Nc3cc(F)c4nc(C)cn4c3)c2n1 (stereo not drawn) [Compound 539, 4-(3-amino-3-methylpyrrolidin-1-yl)-2-ethyl-N-{8-fluoro-2-methylimidazo[1,2-a]pyridin-6-yl}indazole-7-carboxamide]	1000 to 10000	1000 to 10000	> 10000	> 10000
CCn1cc2c(N3CCN[C@@H](C4CC4)C3)ccc(C(=O)Nc3cc(F)c4nc(C)cn4c3)c2n1 [Compound 541, 4-[(3S)-3-cyclopropylpiperazin-1-yl]-2-ethyl-N-{8-fluoro-2-methylimidazo[1,2-a]pyridin-6-yl}indazole-7-carboxamide]	100 to 1000	100 to 1000	> 10000	> 10000
CCn1cc2c(N3CCN[C@H](C4CC4)C3)ccc(C(=O)Nc3cc(F)c4nc(C)cn4c3)c2n1 [Compound 542, 4-[(3R)-3-cyclopropylpiperazin-1-yl]-2-ethyl-N-{8-fluoro-2-methylimidazo[1,2-a]pyridin-6-yl}indazole-7-carboxamide]	100 to 1000	100 to 1000	1000 to 10000	1000 to 10000
CCn1cc2c(N3CCC(NC4CCC4)CC3)ccc(C(=O)Nc3cc(F)c4nc(C)cn4c3)c2n1 [Compound 543, 4-[4-(cyclobutylamino)piperidin-1-yl]-2-ethyl-N-{8-fluoro-2-methylimidazo[1,2-a]pyridin-6-yl}indazole-7-carboxamide]	< 100	< 100	1000 to 10000	1000 to 10000
CCn1cc2c(N3CCC(C)(NC)C3)ccc(C(=O)Nc3cc(F)c4nc(C)cn4c3)c2n1 (stereo not drawn) [Compound 544, 2-ethyl-N-{8-fluoro-2-methylimidazo[1,2-a]pyridin-6-yl}-4-[3-methyl-3-(methylamino)pyrrolidin-1-yl]indazole-7-carboxamide]	1000 to 10000	1000 to 10000	> 10000	> 10000
CCn1cc2c(N(C)C3CCNCC3)ccc(C(=O)Nc3cc(F)c4nc(C)cn4c3)c2n1 [Compound 545, 2-ethyl-N-(8-fluoro-2-methylimidazo[1,2-a]pyridin-6-yl)-4-(methyl(piperidin-4-yl)amino)-2H-indazole-7-carboxamide]	100 to 1000	100 to 1000	1000 to 10000	> 10000
CCn1cc2c(N3CC[C@@](C)(NC)C3)ccc(C(=O)Nc3cc(F)c4nc(C)cn4c3)c2n1 [Compound 547, 2-ethyl-N-{8-fluoro-2-methylimidazo[1,2-a]pyridin-6-yl}-4-[(3R)-3-methyl-3-(methylamino)pyrrolidin-1-yl]indazole-7-carboxamide]	> 10000	> 10000	> 10000	> 10000
CCn1cc2c(N3CC[C@](C)(NC)C3)ccc(C(=O)Nc3cc(F)c4nc(C)cn4c3)c2n1 [Compound 548, 2-ethyl-N-{8-fluoro-2-methylimidazo [1,2-a]pyridin-6-yl}-4-[(3S)-3-methyl-3-(methylamino)pyrrolidin-1-yl]indazole-7-carboxamide]	> 10000	> 10000	> 10000	> 10000
CCn1cc2c(N(C)C3C[C@H]4CC[C@@H](C3)N4)ccc(C(=O)Nc3cc(F)c4nc(C)cn4c3)c2n1 (stereo partly drawn) [Compound 550, 4-[(1R,5S)-8-azabicyclo[3.2.1]octan-3-yl(methyl)amino]-2-ethyl-N-{8-fluoro-2-methylimidazo[1,2-a]pyridin-6-yl}indazole-7-carboxamide]	1000 to 10000	1000 to 10000	> 10000	> 10000
